According to patent US20230391824A1, “RATIONALE, DESIGN, SYNTHESIS AND VALIDATION OF A SMALL MOLECULE ANTICANCER AGENT” (priority 2021, published 2023):
Values belong to the compound of their own block, whether it stands above or below them.

Columns and labels:
[1] = test system: BHQ1-pre-let7a and EGFP-Lin28A bound complexes; assay: FRET assay, displacement of BHQ1-pre-let7a from EGFP-Lin28A; assay type: binding; conditions: at 100 μM
Experimental: This method was adapted from Roos et al (2016). HEK 293-T cells (ATCC) were cultured as monolayers in DMEM GlutaMAX™-1 (Cat #31966-021, Gibco®, Life Technologies) supplemented with 10% of FBS (fetal bovine serum). Stable EGFP-Lin28A HEK 293-T cells were cultured as monolayers in DMEM supplemented with 10% of FBS (fetal bovine serum) and 0.5 mg/ml Geneticin G418 (10131-035, Life Technologies). Transfections were performed according to the manufacturer's protocol with […] (12252-011, Invitrogen, Life Technologies) for siRNAs and JetPEI (101-10, Polyplus transfections) was used for plasmid DNA. […]
160,000 HEK 293 T cells were seeded per well in 6 well plates and transfected with 320 ng pEGFP-C2-Lin28A plasmid according to the experimental setup with the reagents described above and cells were allowed to recover for 48h. […] The EGFP-lin28A| expressing cells were sorted using Fluorescence Activated Cell Sorting (FACS). Finally, larger colonies of individual clones were analyzed for expression levels of EGFP-Lin28A by performing the FRET assay. […]
FRET system (EGFP-Lin28A and 19B-let7a) treated with DMSO was used as positive control. […] The FRET measurements were obtained from the optimized fluorescence parameter. […] The average signal intensity and background fluorescence were corrected with compound self-fluorescence with and without binding buffer.

[2] = test system: LIN28A-positive cancer cell models; assay: Alamar Blue cell viability, LIN28A-positive versus LIN28B-expressing cancer cell models; assay type: cell-based; conditions: relative to LIN28B-expressing cancer cell models
Experimental: FIG. 6: Cells were cultured in the presence of the Compound of formula (I) (P1+P2) at increasing concentrations and cell viability was evaluated using Alamar Blue dye and measurement at Excitation of 550 nm and Emission of 590 nm. All the data shown are representative of three replicates. […] LIN28A and LIN28B expression in the presence of Compound of formula (I) correlates with the sensitivity of cells to this inhibitor.
(§1) FIG. 8A-F: Cells were cultured in the presence of the Compound of formula (I) (versions P1, P2 or P1+P2 at equipotent doses) at increasing concentrations and cell viability was evaluated using Alamar Blue dye and measurement at Excitation of 550 nm and Emission of 590 nm. All the data shown are representative of three replicates. […] A. NT-2 cell viability. B. YP-MEL cell viability. C. WI-38 cell viability. D. T47D cell viability. E. BT-12 cell viability. F. summary of Lin28A and Lin28B status.
as §1, with “8A-F.” for “8A-F:”, “F. summary of Lin28A and Lin28B status.” left out

let-7a miRNA = assay: Taqman miRNA qRT-PCR of let-7a; assay type: cell-based
Experimental: FIG. 11: Compound of formula (I) lead to successful rescue of pre-Iet-7a and their maturation to miRNA let-7a tumor suppressor, only at 1 μM.
Total RNA was extracted using the RNeasy kit (74104, Qiagen). TaqMan® qRT-PCR was performed using standard reagents from Life Technologies (TaqMan® MicroRNA Assay: hsa-let-7a: 000377). The RT was performed using the TaqMan® primers from MicroRNA Assays and the TaqMan® MicroRNA Reverse Transcription Kit (4366596, Life technologies) with 20 ng total RNA. The PCR was performed in a LightCycler 480 instrument with GoTaq® Probe qPCR Master mix (A6102, Promega) according to the manufacturer's protocol. Each reaction was carried out in three technical replicates.

stem cell tumor spheres = assay: Stem cell tumor spheres, western blotting of stemness and differentiation markers; assay type: cell-based
Experimental: FIG. 12: Dose-dependent effect of Compound of formula (I) on the stem cell tumor spheres, in the presence of LIF—a pluripotency supplement used for maintenance of stem cell population (Panel A). As determined by western blotting, Compound of formula (I) begins to halt the expression of stemness markers (Nestin, LIN28A, Oct-4) and induces elevation of differentiation markers (GFAP), from 1 μM onwards (Panel B).
(§2) The proteins were extracted from the same samples as the RNA using the RIPA lysis buffer. The protein extracts (20 μg) were run on 10% SDS-PAGE and transferred on a nitrocellulose blotting membrane 0.22 μm (GE Healthcare) using the Trans-Blot® SD semi-dry transfer devise (Biorad). The proteins were detected using the anti-Lin28A antibody (#8706; Cell Signaling Technology), anti-Lin28B antibody (#11965, Cell Signaling Technology) the anti-beta-actin antibody at respectively 1:2000, 1:2000 and 1:5000 dilutions.

Lin28A protein = molecular target: T1, Lin28A protein (Homo sapiens, UniProt Q9H9Z2); assay: Western blotting of Lin28A protein in cancer cell models; assay type: cell-based; conditions: YP-MEL, BT-37, NT-2 cells
T1 construct: in a panel of endogenously LIN28 expressing cancer cell models; endogenous in cells; host or cells: T47D, YP-MEL, BT-12, BT-37, NT-2 (NTERA)
T1 sequence (Q9H9Z2 1-209): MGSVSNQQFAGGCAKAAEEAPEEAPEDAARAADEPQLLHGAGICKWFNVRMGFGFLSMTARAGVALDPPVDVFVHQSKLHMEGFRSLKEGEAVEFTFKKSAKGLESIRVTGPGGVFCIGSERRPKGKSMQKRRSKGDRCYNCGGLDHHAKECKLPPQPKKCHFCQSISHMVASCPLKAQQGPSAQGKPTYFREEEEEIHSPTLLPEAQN
Experimental: (§3) FIG. 5: Compound of formula (I) mixture, containing the two isomers (P1+P2) causes significant reduction in Lin28A protein from 5 μM onwards, in a panel of endogenously LIN28 expressing cancer cell models. […] LIN28A and LIN28B expression profile in pediatric CNS cancer cell lines, 96-hr post-treatment with Compound of formula (I). SDS-PAGE on 10% polyacrylamide gel of total cell lysates from untreated cells harvested at 80-90% confluency. Samples loaded with volumes for 20 μg protein. LIN28A and LIN28B proteins were detected using the anti-LIN28A antibody (#8706; Cell Signaling Technology) and anti-LIN28B antibody (#11965; Cell Signalling Technology) at 1:2000 dilutions. T47D: adult breast cancer (LIN28A expressing); YPMEL: malignant melanoma derived from Neurocutaneous Melanosis (NCM) (Lin28A and Lin28B expressing); BT-12: pediatric atypical-teratoid rhabdoid tumor (AT/RT).
FIG. 7A-C: To determine the differences in the biological activity of the two isomers (P1+P2) of Compound of formula (I), we tested the effects of purified and separated P1 and P2 isomers on the protein expression of Lin28A and Lin28B. (A) YP-MEL (NCM). (B) BT-37 (AT/RT). (C) NT-2 (NTERA) (Testicular cancer).
as §2

LIN28B protein = molecular target: T2, LIN28B protein (Homo sapiens, UniProt Q6ZN17); assay: Western blotting of Lin28B protein in cancer cell models; assay type: cell-based; conditions: YP-MEL, BT-37, NT-2 cells; at the tested dosages
T2 construct: in a panel of endogenously LIN28 expressing cancer cell models; endogenous in cells; host or cells: YP-MEL, BT-12, BT-37, NT-2 (NTERA)
T2 sequence (Q6ZN17 1-250): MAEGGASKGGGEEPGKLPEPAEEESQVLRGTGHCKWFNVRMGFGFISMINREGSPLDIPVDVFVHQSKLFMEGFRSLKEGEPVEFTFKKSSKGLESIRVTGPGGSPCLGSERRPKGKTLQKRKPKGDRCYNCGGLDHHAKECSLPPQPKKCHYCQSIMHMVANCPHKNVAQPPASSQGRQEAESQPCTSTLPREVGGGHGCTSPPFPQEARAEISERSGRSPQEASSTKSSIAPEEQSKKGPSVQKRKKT
Experimental: as §3, with “(AT/RT). […]” for “(AT/RT).”
The proteins were extracted from the same samples as the RNA using the RIPA lysis buffer. […] The proteins were detected using the anti-Lin28A antibody (#8706; Cell Signaling Technology), anti-Lin28B antibody (#11965, Cell Signaling Technology) the anti-beta-actin antibody at respectively 1:2000, 1:2000 and 1:5000 dilutions.

Solubility = assay type: physicochemical; conditions: DMSO, organic solvent or mixture; read-out: solubility in DMSO
[3] = test system: NT-2 testicular cancer cells; assay: Flow cytometric (propidium iodide) cell cycle analysis of NT-2 cells; assay type: cell-based; conditions: 24h, compared with P1
Experimental: FIG. 9: NT-2, testicular cancer cells, were incubated with Compound of formula (I) isomers for 24h and subjected to Flow Cytometric analysis to determine the alterations in cancer cell cycle. […] Therefore, only the P1 isomer of Compound of formula (I) was investigated further to determine its in vitro and in vivo efficacy.
The method for Propidium Iodide (PI) based cell cycle analysis was performed as per the instructions given by the manufacturer (AB139418; Abcam). Briefly NT-2 cells treated with Compound of formula (I) versions were harvested in single cell suspensions with each experimental condition containing two million cells, fixed in 66% Ethanol overnight at 4° C. The ethanol was removed thoroughly by centrifugation, followed by rehydration of cells in PBS with a repeat of centrifugation. Cells were stained in PI (1%) and RNase solution (1%) in PBS for 30 minutes at 37° C. in the dark. The cells were analyzed immediately on the Flow Cytometer.

- FRET reduction compared with 70% by Compound of formula (I) [1]: equivalent FRET reduction
SMILES: CC(=O)N(C)c1cccc(-c2ccc3nnc(C)n3n2)c1 [c1632, reference compound]

SMILES: CC[C@H](C)[C@H](NC(=O)[C@H](Cc1ncc[nH]1)NC(=O)c1cccc(C(N)=O)c1)C(=O)Nc1ccc(O)c(-c2nc3ccccc3s2)c1 [Compound of formula (I)]
- sensitivity of LIN28A-positive cancer cell models [2]: heightened sensitivity
- concentration giving rescue of pre-let-7a and maturation to miRNA let-7a (let-7a miRNA): 1 µM
- upregulation of let-7a (let-7a miRNA; Lin28B expressing BT-12 cells, relative to RNU6B): only minor upregulation
- expression of let-7a miRNA tumor suppressor (let-7a miRNA; YP-MEL, T47D, A549 cells, relative to RNU6B): increase in the expression
- effect on stemness and differentiation markers in the stem cell population (stem cell tumor spheres): dose dependent reduction of sternness markers and elevation of differentiation markers
- concentration from which stemness markers (Nestin, LIN28A, Oct-4) are halted and differentiation markers (GFAP) elevated (stem cell tumor spheres; in the presence of LIF, western blotting): ≥ 1 µM

- effect on the expression levels of Lin28A (Lin28A protein): no effect
- Lin28B expression (LIN28B protein): remained unaltered
- solubility (Solubility): < 1000 µg/mL
SMILES: CCC(C)C(NC(=O)C(Cc1ncc[nH]1)NC(=O)c1cccc(C(N)=O)c1)C(=O)Nc1ccc(O)c(-c2nc3ccccc3s2)c1 (centres unmarked) [Compound P2]
- triggering of cancer cell death / changes in cancer cell viability [3]: failed to cause any significant changes
